Experiments:
CU-ACC2 = assay: area under concentration-response curve (viability) (AUC (a.u.)); higher = less active; conditions: 48 h
How it was run: (§1)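 In 1,536-well plates, 500–1,000 cells/well of three adrenocortical carcinoma cell lines in 5 µL medium received 23 nL of each library compound across 11 concentrations. At 48 h, CellTiter-Glo was incubated for 15 minutes at room temperature and luminescence measured. Per-plate normalisation used vehicle and empty-well controls, and only inhibitory or non-responding curve classes were kept when fitting concentration-response curves for AC50 and area under the curve.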

NCI-H295R = assay: as above; conditions: 48 h
How it was run: as §1

CC[C@H](NC(=O)[C@H](C)NC)C(=O)N1C[C@@H](O)C[C@H]1Cc1c(-c2[nH]c3cc(F)ccc3c2C[C@@H]2C[C@H](O)CN2C(=O)[C@H](CC)NC(=O)[C@H](C)NC)[nH]c2cc(F)ccc12
area under concentration-response curve (CU-ACC2): 602
area under concentration-response curve (NCI-H295R): 610

C[C@@H](O)[C@@H]1NC(=O)[C@H](CCCCN)NC(=O)[C@@H](Cc2c[nH]c3ccccc23)NC(=O)[C@H](Cc2ccccc2)NC(=O)[C@@H](NC(=O)[C@H](N)Cc2ccccc2)CSSC[C@@H](C(=O)N[C@H](CO)[C@@H](C)O)NC1=O
area under concentration-response curve (CU-ACC2): 648
area under concentration-response curve (NCI-H295R): 612

NNC(=O)c1ccncc1
area under concentration-response curve (CU-ACC2): 500
area under concentration-response curve (NCI-H295R): 554

O=C(NC[C@H]1CN(c2ccc(N3CCOCC3=O)cc2)C(=O)O1)c1ccc(Cl)s1
area under concentration-response curve (CU-ACC2): 605
area under concentration-response curve (NCI-H295R): 557

O=C(c1ccc(F)cc1)N1CCC[C@H](c2nc(-c3ccc(F)cc3)no2)C1
area under concentration-response curve (CU-ACC2): 624
area under concentration-response curve (NCI-H295R): 576

Cc1cnc(-c2ccccc2C(C)C)nc1NCc1ccc(-n2ccnn2)cc1
area under concentration-response curve (CU-ACC2): 614
area under concentration-response curve (NCI-H295R): 563

CC[S+]([O-])(=O)N1CCC(CC1)C(C)[N]2C(=C(C(=O)NC\C3=C(OC)\C=C(\C)NC3=O)C4=C2C=CC=C4)C (stereo not given)
area under concentration-response curve (CU-ACC2): 562
area under concentration-response curve (NCI-H295R): 511

CN1C(=O)COc2c(C(=O)NC3CN4CCC3CC4)cc(Cl)cc21 (stereo not given)
area under concentration-response curve (CU-ACC2): 550
area under concentration-response curve (NCI-H295R): 533

CCC(=O)Nc1cccc(Oc2nc(Nc3ccc(N4CCN(C)CC4)cc3OC)ncc2Cl)c1
area under concentration-response curve (CU-ACC2): 523
area under concentration-response curve (NCI-H295R): 465

CCC1(c2ccccc2)C(=O)NCNC1=O
area under concentration-response curve (CU-ACC2): 566
area under concentration-response curve (NCI-H295R): 521

OCc1ccccc1O[C@@H]1O[C@H](CO)[C@@H](O)[C@H](O)[C@H]1O
area under concentration-response curve (CU-ACC2): 616
area under concentration-response curve (NCI-H295R): 563

O=C(NC[C@H](O)CN1CCc2ccccc2C1)c1cc(NC2COC2)ncn1
area under concentration-response curve (CU-ACC2): 367
area under concentration-response curve (NCI-H295R): 429

COC1=CC2=C(C=C1OCCCN3CCCC3)\N=C(N)/C24CCC4
area under concentration-response curve (CU-ACC2): 578
area under concentration-response curve (NCI-H295R): 547

CC1=C(C=CC=C1)N2/N=C(\C=C/C2=O)C3=C4NC[C@@H](CO)C[N]4N=C3C5=CC=C(F)C=C5
area under concentration-response curve (CU-ACC2): 422
area under concentration-response curve (NCI-H295R): 435

NC(=O)c1ccc(N(C(N)=O)c2c(F)cccc2F)nc1-c1ccc(F)cc1F
area under concentration-response curve (CU-ACC2): 440
area under concentration-response curve (NCI-H295R): 471

CNC(=O)c1ccc2cc(C3(O)CCn4cncc43)ccc2c1 (stereo not given)
area under concentration-response curve (CU-ACC2): 599
area under concentration-response curve (NCI-H295R): 556

O=C(COCC(=O)N1CCN(C(c2ccccc2)c2ccccc2)CC1)Nc1ccc(Cl)cc1C(=O)O
area under concentration-response curve (CU-ACC2): 529
area under concentration-response curve (NCI-H295R): 538

O=C(O)CCNc1cc(N2CCc3ccccc3CC2)nc(-c2ccccn2)n1
area under concentration-response curve (CU-ACC2): 486
area under concentration-response curve (NCI-H295R): 490

C[C@@H](NC1=CC=CC=C1C(O)=O)C/2=C/C(=C\N3C(=O)/C=C(\N=C23)N4CCOCC4)C
area under concentration-response curve (CU-ACC2): 535
area under concentration-response curve (NCI-H295R): 543

O=C1c2c(O)cc(O)cc2O[C@H](c2ccc(O)c(O)c2)[C@H]1O
area under concentration-response curve (CU-ACC2): 583
area under concentration-response curve (NCI-H295R): 539

CC(NC(C)(C)C)C(=O)c1cccc(Cl)c1 (stereo not given)
area under concentration-response curve (CU-ACC2): 526
area under concentration-response curve (NCI-H295R): 509

COc1cc2ncnc(Nc3cccc(Cl)c3F)c2cc1OC(=O)N1CCN(C)C[C@H]1C
area under concentration-response curve (CU-ACC2): 610
area under concentration-response curve (NCI-H295R): 531

CC[C@]12CC[C@H]3[C@@H](CCC/4=C/C(=O)CC[C@H]34)[C@@H]1\C=C/[C@@]2(O)C#C
area under concentration-response curve (CU-ACC2): 623
area under concentration-response curve (NCI-H295R): 602

NC(=O)c1cccnc1
area under concentration-response curve (CU-ACC2): 608
area under concentration-response curve (NCI-H295R): 569

C=Cc1cc(O)cc2nc(-c3ccc(O)c(F)c3)oc12
area under concentration-response curve (CU-ACC2): 587
area under concentration-response curve (NCI-H295R): 550

C/C(=N\NC(=O)c1cccc([S+](=O)([O-])N2CCOCC2)c1)c1cc(Cl)ccc1O
area under concentration-response curve (CU-ACC2): 640
area under concentration-response curve (NCI-H295R): 597

CC/1=C/2C[C@H]3C(=C)CCC[C@]3(C)/C=C2OC1=O
area under concentration-response curve (CU-ACC2): 593
area under concentration-response curve (NCI-H295R): 524

COc1ccc(C(=O)CC(=O)c2ccc(C(C)(C)C)cc2)cc1
area under concentration-response curve (CU-ACC2): 595
area under concentration-response curve (NCI-H295R): 543

Cn1cnc(-c2cc3nccc(Oc4ccc(NC(=S)NC(=O)Cc5ccccc5)cc4F)c3s2)c1
area under concentration-response curve (CU-ACC2): 359
area under concentration-response curve (NCI-H295R): 412

CCc1cccc(CC)c1NC(=O)N1Cc2[nH]nc(NC(=O)c3ccc(N4CCN(C)CC4)cc3)c2C1
area under concentration-response curve (CU-ACC2): 614
area under concentration-response curve (NCI-H295R): 597

Cc1c(-c2c(-c3ccc(F)o3)sc3ncnc(O[C@@H](Cc4ccccc4OCc4ccnn4CC(F)(F)F)C(=O)O)c23)ccc(OCCN2CCN(C)CC2)c1Cl
area under concentration-response curve (CU-ACC2): 600
area under concentration-response curve (NCI-H295R): 529

NC(=S)N/N=C/c1ncccc1N
area under concentration-response curve (CU-ACC2): 442
area under concentration-response curve (NCI-H295R): 440

Cc1cc(NC(=O)Nc2ccc(N(C)C)cc2)c2cc(F)cc(F)c2n1
area under concentration-response curve (CU-ACC2): 667
area under concentration-response curve (NCI-H295R): 613

Nc1nc(N)c2nc(-c3cccc(Cl)c3)c(N)nc2n1
area under concentration-response curve (CU-ACC2): 596
area under concentration-response curve (NCI-H295R): 520

C[C@]12CCC3c4ccc(O)cc4CCC3C1CCC2=O (stereo not given in full)
area under concentration-response curve (CU-ACC2): 565
area under concentration-response curve (NCI-H295R): 508

NC\1=N\C(=O)N(\C=C1)[C@@H]2O[C@H](CO)[C@@H](O)[C@@H]2O
area under concentration-response curve (CU-ACC2): 551
area under concentration-response curve (NCI-H295R): 504

C[S+](=O)([O-])c1ccc(-c2cnc(N)c(C(=O)Nc3ccccc3)n2)cc1
area under concentration-response curve (CU-ACC2): 473
area under concentration-response curve (NCI-H295R): 534

Cc1ccc2c(=O)c3cccc(CC(=O)O)c3oc2c1C
area under concentration-response curve (CU-ACC2): 540
area under concentration-response curve (NCI-H295R): 486

NC[C@H](O)c1ccc(O)c(O)c1
area under concentration-response curve (CU-ACC2): 636
area under concentration-response curve (NCI-H295R): 599

OC(=O)C/1=C/C(=O)NC(=O)N1
area under concentration-response curve (CU-ACC2): 530
area under concentration-response curve (NCI-H295R): 529

CC/1=N/C2=CC=CC(=C2C(=O)N1C3CCC(=O)NC3=O)N (stereo not given)
area under concentration-response curve (CU-ACC2): 635
area under concentration-response curve (NCI-H295R): 575

CN1CCN(c2ccc([N+](=O)[O-])c3no[n+]([O-])c23)CC1
area under concentration-response curve (CU-ACC2): 630
area under concentration-response curve (NCI-H295R): 583

Cc1ccc(NC(=O)[C@H]2CCCN(C(=O)c3c(C)cccc3F)[C@H]2c2ccc(NC3CCCC3)cc2)cc1C(F)(F)F
area under concentration-response curve (CU-ACC2): 561
area under concentration-response curve (NCI-H295R): 521

O=NN(CCCl)C(=O)NC1CCCCC1
area under concentration-response curve (CU-ACC2): 503
area under concentration-response curve (NCI-H295R): 538

COC(=O)N(CC(=O)O)Cc1cccc(OCc2nc(-c3ccc(Cl)cc3)oc2C)c1
area under concentration-response curve (CU-ACC2): 553
area under concentration-response curve (NCI-H295R): 452

C#Cc1cccc(Nc2ncnc3cc(OCCOC)c(OCCOC)cc23)c1
area under concentration-response curve (CU-ACC2): 623
area under concentration-response curve (NCI-H295R): 550

CNC(=O)c1ccc(N2C(=S)N(c3ccc(C#N)c(C(F)(F)F)c3)C(=O)C2(C)C)cc1F
area under concentration-response curve (CU-ACC2): 559
area under concentration-response curve (NCI-H295R): 499

Cc1cc(-c2cc(OC(=O)c3ccccc3)ccc2Cl)cc2nnc(Nc3ccc(OCCN4CCCC4)cc3)nc12
area under concentration-response curve (CU-ACC2): 664
area under concentration-response curve (NCI-H295R): 612

CCCC[N+]1(C)[C@@H]2CC(OC(=O)[C@H](CO)c3ccccc3)C[C@H]1[C@@H]1O[C@@H]12 (stereo not given in full)
area under concentration-response curve (CU-ACC2): 630
area under concentration-response curve (NCI-H295R): 568

Cc1cc(N2CCOCC2)ccc1Nc1nc(NC2CCCCC2)c2nc[nH]c2n1
area under concentration-response curve (CU-ACC2): 587
area under concentration-response curve (NCI-H295R): 539

CCN(CC)CCCC(C)Nc1nc(C)cc(Nc2ccc3nc(C)cc(N)c3c2)n1 (stereo not given)
area under concentration-response curve (CU-ACC2): 478
area under concentration-response curve (NCI-H295R): 507

C/C(NNC(=O)c1cccc([S+](=O)([O-])N2CCOCC2)c1)=C1\C=C(Cl)C=CC1=O
area under concentration-response curve (CU-ACC2): 585
area under concentration-response curve (NCI-H295R): 545

Cn1c(-c2ccccc2C(F)(F)F)nnc1C12CCC(c3noc(C4CC(F)(F)C4)n3)(CC1)CC2
area under concentration-response curve (CU-ACC2): 594
area under concentration-response curve (NCI-H295R): 546

CC[C@H](NC1=C2N=C[NH]C2=NC=N1)C/3=N/C4=C(C(=CC=C4)F)C(=O)N3C5=CC=CC=C5
area under concentration-response curve (CU-ACC2): 582
area under concentration-response curve (NCI-H295R): 536

CCc1ccc2nc(Nc3cc(Cc4ccccc4)nc(N[C@H]4CC[C@H](O)CC4)n3)sc2c1
area under concentration-response curve (CU-ACC2): 620
area under concentration-response curve (NCI-H295R): 580

CC[C@@](C)(Nc1ccnc(-c2c[nH]c3ncccc23)n1)C(=O)NCC(F)(F)F
area under concentration-response curve (CU-ACC2): 589
area under concentration-response curve (NCI-H295R): 539

Cc1cc(O)c2c(c1)C(=O)c1cccc(O)c1C2=O
area under concentration-response curve (CU-ACC2): 604
area under concentration-response curve (NCI-H295R): 552

CC1CC2=CC=CC=C2N1C(=O)C\C3=N\C(=O)\C=C(/N3)N4CCOCC4 (stereo not given)
area under concentration-response curve (CU-ACC2): 579
area under concentration-response curve (NCI-H295R): 548

CCCCOc1ccc(CC(=O)NO)cc1
area under concentration-response curve (CU-ACC2): 631
area under concentration-response curve (NCI-H295R): 573

CC/C(=C(\c1ccccc1)c1ccc(OCCN(C)C)cc1)c1ccccc1
area under concentration-response curve (CU-ACC2): 455
area under concentration-response curve (NCI-H295R): 554

Reference: the supplement of paper PMC10949913
